Like-named read-outs stand apart in the source and are kept apart here.

Here are results for one compound from patent US8759363B2, “Quinazoline-based T cell proliferation inhibitors” (Yissum Research Development Company of the Hebrew …, priority 2010, dated 2014).

In one experiment the test system is OT1 (resting) cells. As to the kind of experiment: MLR with resting control cells, resting OT1 cells. It counts as cell-based, mouse. The following applies: 0.5 μM, 72 h MLR with IL-7; no inhibitor 2459. The source says: (§1) The aim of this test was to determine whether 2 affects only the proliferating cells or there is a general mechanism affecting all cell numbers. For this purpose we mixed 3 cell types: […]: BALB/c, 2C and OT1; […]: CB6F1, TEA and OT2. The OT1 and OT2 are splenocytes that were isolated from OT1 and OT2 mice (Jackson Laboratories, Bar Harbor, Me.),
(§2) Thus, the ability to monitor the fate of proliferation and resting cells by FACS was enabled due to the use of the MLR described above for CD4+ and CD8+ and the addition of OT2 and OT1 splenocytes, respectively.
(§3) Proliferating cells often secrete cytokines that induce survival of neighbouring cells; since the proliferation was expected to be inhibited we added 50 ng/ml of IL-7. This concentration is sufficient to keep the cells alive, but not to induce proliferation.
Irradiated Balb splenocytes were incubated for 72 h with 2C, and OT1 splenocytes in the presence of IL-7 W/O inhibitor.
The CD4+ and CD8+ were stimulated to proliferate, whereas in the absence of specific stimuli the OT1 and OT2 cell populations were resting, and theses cells were kept alive by the administration of IL-7. […] The number of 2C and OT1 cells that were treated with 0.5 μM 2 was 286 and 1148, respectively, while the number of 2C and OT1 cells that were treated with 0.5 μM 21 (control) was 4767 and 2468, respectively. This is depicted as a bar-graph in FIG. 8C.

In a further experiment the test system is Jurkat cells. The experiment can be described thus: Jurkat cell proliferation, BrdU incorporation. It counts as cell-based, human. The following applies: BrdU uptake. As to the method:
Cells were depleted of fetal calf serum (FCS) for 12 hours. They were then stimulated to proliferate by addition of ConA (10 μg/ml) for PBMC from healthy individuals and for Jurkat cells, FCS (10%) for HEK293 and A375 cells, PDGF (30 ng/ml) for NIH 3T3 cells, and EGF (30 ng/ml) for MDA-MB-231, Cells (1×10^5) were cultured in 96-well plates for 3 days in the presence or absence of inhibitors at the concentrations specified in the text. Each condition was tested in duplicate wells.
Proliferation was assessed by BrdU incorporation using a colorimetric ELISA kit (Roche, Germany). Subsequent to labeling with 10 μM BrdU, DNA was denatured and the cells were incubated with anti-BrdU-POD, prior to the addition of colorimetric substrate (TMB). The reaction product was quantified by measuring absorbance at 450 nm in an ELISA plate reader (ELx800 BIO-TEK Instruments Inc.).
Since we were not prejudiced towards any specific protein kinase, we used a biological assay for T cell proliferation. We tested our libraries for inhibition of proliferation of PBMC and Jurkat cells (Table 3). Cell proliferation was measured by BrdU uptake. […] PBMC cells were stimulated by a non-specific T cell mitogen, Concanavalin A (ConA). All of the compounds that were tested inhibited proliferation at micromolar or sub-micromolar concentrations.

The next experiment relates to OT2 (resting) cells. As to the kind of experiment: MLR with resting control cells, resting OT2 cells. The following applies: 0.5 μM, 72 h MLR with IL-7; no inhibitor 1025. It counts as cell-based, mouse.
Text: as §1, §2, §3
(§4) The number of TEA and OT2 cells that were treated with 0.5 μM 2 was 1452 and 826, respectively, while the number of 2C and OT1 cells that were treated with 0.5 μM 21 was 3003 and 903, respectively. This is depicted as a bar-graph in FIG. 9C.

A further experiment relates to PBMC and Jurkat cells. The experiment can be described thus: Cell cycle analysis by FACS. The following applies: treated cells, 0.5 μM S101. Format: cell-based, human. As for the experimental part: The effects of the inhibition of the cell cycle were analyzed with a fluorescence-activated cell sorter (FACS). Cells were grown in 60 mm diameter plates (Nunc) and were treated with inhibitor for 12 and 24 h. After the indicated time, cells were pooled, pelleted by centrifugation, washed in phosphate-buffered saline (PBS), and fixed with cold 70% ethanol for a minimum of 12 h. Cells were re-pelleted and resuspended in PBS. 50 μg/ml of RNase A was added in the dark for 30 minutes followed by 5 μg/ml of propidium iodide for FACS analysis (Becton Dickinson FACScan).
The fraction of cells in G2 increased from 30% in the untreated cells to 50% in the treated cells.

A further experiment addresses T1, ZAP-70 (Homo sapiens, UniProt P43403).
T1 construct: We also immunoprecipitated the ZAP-70 kinase from the treated/untreated cells; endogenous in cells; host or cells: Jurkat
As to the kind of experiment: SLP-76 kinase assay with ZAP-70 immunoprecipitated from treated Jurkat cells. It counts as cell-based. The settings on record: ZAP-70 from Jurkat cells treated 16 h, recombinant SLP-76 substrate, dose-dependent. As to the method:
ZAP-70 was immunoprecipitated as described above. The immune complexes were washed 2 times with lysis buffer and 2 times with kinase buffer (50 mM Tris pH 7.5, 100 mM NaCl and 10 mM MgCl2). The beads were resuspended in 30 μl of kinase buffer containing 3 μg of His-tagged, full-length human SLP-76 protein (kindly provided by Dr. Yablonski, Technion, Israel), and the kinase reactions were initiated by the addition of 10 μl kinase buffer containing 5 μM ATP. The reactions proceeded for 15 min at 30° C. and were stopped by the addition of 6 μL EDTA (100 mM) and sample buffer. The results were analyzed by western blot [Yablonski, 1998]
Jurkat cells were treated with 2 for 16 h, and SLP-76 phosphorylation was measured by immunoprecipitation of SLP-76 protein followed by western blotting with an antibody to the phosphorylated tyrosines of the protein (FIG. 6A). We also immunoprecipitated the ZAP-70 kinase from the treated/untreated cells, and tested its ability to phosphorylate recombinant SLP-76 protein as substrate (FIG. 6B). […] Presumably the remaining SLP-76 activity was sufficient to allow IL-2 secretion.

The test system of the next experiment is TEA (stimulated) cells. The experiment can be described thus: MLR with resting control cells, stimulated TEA cells. It counts as cell-based, mouse. The settings on record: 0.5 μM, 72 h MLR with IL-7; no inhibitor 3850.
Text: as §1, §2, §3, §4

T1 sequence (P43403 whole entry): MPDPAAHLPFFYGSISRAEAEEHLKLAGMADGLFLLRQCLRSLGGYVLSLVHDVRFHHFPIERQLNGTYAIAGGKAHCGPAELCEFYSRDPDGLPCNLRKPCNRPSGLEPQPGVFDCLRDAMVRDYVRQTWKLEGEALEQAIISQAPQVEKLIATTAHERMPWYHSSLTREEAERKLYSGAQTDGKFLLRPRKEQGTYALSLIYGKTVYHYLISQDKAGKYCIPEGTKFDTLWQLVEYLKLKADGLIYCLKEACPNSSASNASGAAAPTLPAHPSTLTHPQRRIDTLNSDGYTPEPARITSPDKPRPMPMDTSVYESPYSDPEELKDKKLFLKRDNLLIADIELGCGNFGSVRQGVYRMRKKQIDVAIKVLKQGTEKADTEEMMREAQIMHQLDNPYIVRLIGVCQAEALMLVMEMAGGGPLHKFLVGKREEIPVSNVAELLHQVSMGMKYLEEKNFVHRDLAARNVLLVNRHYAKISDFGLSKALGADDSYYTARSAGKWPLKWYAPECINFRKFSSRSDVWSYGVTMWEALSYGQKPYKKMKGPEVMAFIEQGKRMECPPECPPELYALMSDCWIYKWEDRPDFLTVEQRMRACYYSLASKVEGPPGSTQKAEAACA

Take `COc1cc(-c2nc(Nc3ccc(C)cc3)c3ccccc3n2)cc(OC)c1OC` [Compound 2, N-p-tolyl-2-(3,4,5-trimethoxyphenyl)quinazolin-4-amine]: in the experiment with OT1 (resting) cells, the “number of OT1 (resting) cells” value was 1148. In addition, the IC50 with Jurkat cells (nM ± SD, read-out: IC50 Jurkat cells proliferation inhibition) came out at 29 ± 0.23 nM; with Jurkat cells (Homo sapiens, Jurkat, nM ± SD, read-out: IC50 Jurkat cells proliferation inhibition), 30 nM; in the experiment with Jurkat cells (Homo sapiens, Jurkat, non-stimulated, read-out: IC50 of non-stimulated cells), 50 nM; with Jurkat cells (Homo sapiens, Jurkat, stimulated, read-out: IC50 of stimulated cells) it was 100 nM. In addition, in the experiment with OT2 (resting) cells, the “number of OT2 (resting) cells” value worked out at 826. In the experiment with PBMC and Jurkat cells (untreated 2%), this compound had a sub-G1 population of 9.5%. Further, the “fraction of cells in G2” value in the experiment on PBMC and Jurkat cells (untreated 30%) came to 50%. Besides, the “activity of ZAP-70” value on ZAP-70 is “inhibited”. Further, the “number of TEA (stimulated) cells” value in the experiment with TEA (stimulated) cells was 1452.
